Source: doi:10.1101/2024.03.13.583470v1, “SARS-CoV-2 methyltransferase nsp10-16 in complex with natural and drug-like purine analogs for guiding structure-based drug discovery” (biorxiv, 2024)

What was measured:
nsp10-16 [1] = molecular target: T1, nsp10-16 (Severe acute respiratory syndrome coronavirus 2, UniProt P0DTD1); experiment: ITC or other biophysical method (nanoDSF, MST), not given; assay type: binding
T1 construct: gene rep

nsp10-16 [2] = molecular target: T1, nsp10-16; experiment: X-ray crystallography, soaking; assay type: binding; details: SAM site, fully replaces SAM; 10 mM soak, pH 6.5

Row | Compound | KD (nsp10-16 [1]) | X-ray crystallography, soaking (nsp10-16 [2])
1 | C[S+](CC[C@H](N)C(=O)O)C[C@H]1O[C@@H](n2cnc3c(N)ncnc32)[C@H](O)[C@@H]1O (some centres unmarked) [S-adenosyl methionine] | measurable binding of the tested ligands within the investigated ligand concentrations applied, except for | –
2 | Nc1ncnc2c1ncn2[C@@H]1O[C@H](CO)[C@@H](O)[C@H]1O [adenosine] | – | electron density is observed in the adenosine cavity while SAM is fully replaced
